Active and inactive are the calls of the source.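 How the source made its calls: active means compounds whose weighted score, built from EC50 under 10 micromolar and fitted span over a set limit, tops 52; inactive means the rest.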
Molecular target: Broad substrate specificity ATP-binding cassette transporter ABCG2 (Homo sapiens) (UniProt Q9UNQ0)
Experiment: blockade of ABCG2-mediated dye efflux – Ig-MXP3 cells, JC-1 substrate, flow cytometry, dose response (AID 489003)
Conditions: JC-1 efflux

Chain of Broad substrate specificity ATP-binding cassette transporter ABCG2 (Homo sapiens) (Q9UNQ0 whole entry, looked up): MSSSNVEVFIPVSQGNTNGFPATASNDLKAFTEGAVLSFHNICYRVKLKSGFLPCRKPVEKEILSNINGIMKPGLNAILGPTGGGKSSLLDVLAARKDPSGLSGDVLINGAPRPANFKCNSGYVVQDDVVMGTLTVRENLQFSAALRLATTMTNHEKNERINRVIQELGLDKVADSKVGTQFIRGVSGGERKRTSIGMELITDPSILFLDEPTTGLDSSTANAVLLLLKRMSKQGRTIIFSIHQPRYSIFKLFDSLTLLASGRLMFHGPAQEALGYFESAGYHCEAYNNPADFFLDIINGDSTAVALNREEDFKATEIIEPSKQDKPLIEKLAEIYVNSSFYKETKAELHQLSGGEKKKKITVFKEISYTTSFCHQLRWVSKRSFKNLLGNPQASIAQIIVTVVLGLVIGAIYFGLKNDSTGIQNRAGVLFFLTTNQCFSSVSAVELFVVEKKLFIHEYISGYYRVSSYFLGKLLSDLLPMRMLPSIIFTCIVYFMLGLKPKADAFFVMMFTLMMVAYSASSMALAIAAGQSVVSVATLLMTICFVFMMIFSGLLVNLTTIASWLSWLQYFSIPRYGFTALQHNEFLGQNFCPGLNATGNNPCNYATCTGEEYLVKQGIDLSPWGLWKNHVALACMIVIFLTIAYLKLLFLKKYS

Structure (SMILES)	EC50	inhibition (at 50 µM (top of the series))
COc1cccc(-c2cc3nc(C)cc(N4CCN(C(=O)c5ccoc5)CC4)n3n2)c1	4570 nM	–
Cc1ccc(-c2cc3nc(-c4ccco4)cc(N4CCN(C(=O)c5ccoc5)CC4)n3n2)cc1	8180 nM	–
CN(CCCN(C)c1cc(-c2ccco2)nc2cc(-c3ccccc3)nn12)C(=O)c1ccoc1	2720 nM	–
Cc1cc(N2CCN(C(=O)c3ccoc3)CC2)n2nc(-c3ccccc3)cc2n1	7190 nM	–
CC(=O)N1CCN(c2c(C)c(C)nc3cc(-c4ccc(F)cc4)nn23)CC1	inactive	–
COc1ccc(-c2cc3nc(C)c(C)c(N4CCN(C(=O)c5ccoc5)CC4)n3n2)cc1	1200 nM	–
COc1cccc(-c2cc3nc(-c4cccc(C#N)c4)cc(N4CCN(C(=O)c5ccoc5)CC4)n3n2)c1	2530 nM	–
O=C(OCc1ccccc1)N1CCN(c2cc(-c3ccco3)nc3cc(-c4ccccc4)nn23)CC1	2730 nM	–
O=C(c1ccoc1)N1CCN(c2cc(-c3ccco3)nc3cc(-c4ccco4)nn23)CC1	697 nM	–
COc1cccc(-c2cc3nc(C)c(C)c(N4CCN(Cc5ccco5)CC4)n3n2)c1	393 nM	–
Cc1coc(C)c1C(=O)N1CCN(c2cc(-c3ccco3)nc3cc(-c4ccccc4)nn23)CC1	3220 nM	–
CC(=O)N1CCN(c2cc(-c3ccco3)nc3cc(-c4ccccc4)nn23)CC1	inactive	–
O=C(c1ccco1)N1CCN(c2c3c(nc4cc(-c5ccc(F)cc5)nn24)CCC3)CC1	701 nM	–
Cc1cc(N2CCN(C(=O)c3ccco3)CC2)n2nc(-c3ccccc3)nc2n1	9430 nM	–
Cc1nc2cc(-c3ccc(Br)cc3)nn2c(N2CCN(C(=O)c3ccoc3)CC2)c1C	10100 nM	–
COc1cccc(-c2cc(N3CCN(C(=O)c4ccoc4)CC3)n3nc(-c4ccccc4)cc3n2)c1	3330 nM	–
COc1ccccc1-c1cc(N2CCN(C(=O)c3ccoc3)CC2)n2nc(-c3ccccc3)cc2n1	1870 nM	–
O=C1CN(c2cc(-c3ccco3)nc3cc(-c4ccccc4)nn23)CCN1c1ccccc1	1360 nM	–

Structure (SMILES)	EC50	inhibition (at 50 µM (top of the series))
COc1cccc(-c2cc3nc(-c4ccco4)cc(N4CCN(C(=O)c5ccoc5)CC4)n3n2)c1	1860 nM	–
O=C(c1ccoc1)N1CCN(c2cc(-c3cccs3)nc3cc(-c4ccccc4)nn23)CC1	1660 nM	–
O=C(c1ccsc1)N1CCN(c2cc(-c3ccco3)nc3cc(-c4ccccc4)nn23)CC1	2870 nM	–
Cc1nc2cc(-c3ccc(F)cc3)nn2c(N2CCN(C(=O)c3ccco3)CC2)c1C	7640 nM	–
O=C(C1CCCO1)N1CCN(c2c3c(nc4cc(-c5cccc(F)c5)nn24)CCCC3)CC1 (centres undefined)	inactive	–
O=C(c1ccoc1)N1CCN(c2cc(-c3ccco3)nc3cc(-c4cccs4)nn23)CC1	2480 nM	–
CC1CN(C(=O)c2ccoc2)CCN1c1cc(-c2ccco2)nc2cc(-c3ccccc3)nn12 (centres undefined)	2920 nM	–
COc1ccc(-c2[nH]nc3nc(N4CCN(C(=O)c5ccoc5)CC4)cc(C(F)(F)F)c23)cc1	8440 nM	–
COc1cccc(-c2cc3nc(-c4ccco4)cc(N4CCN(C(C)=O)CC4)n3n2)c1	892 nM	–
COc1cccc(-c2cc3nc(C)c(C)c(N4CCN(C(=O)c5ccoc5)CC4)n3n2)c1	3830 nM	–
COc1ccc(-c2cc(N3CCN(C(=O)c4ccoc4)CC3)n3nc(-c4ccccc4)cc3n2)cc1	3640 nM	–
O=C(c1ccoc1)N1CCN(c2cc(-c3ccco3)nc3cc(-c4ccc(Cl)cc4)nn23)CC1	2720 nM	–
c1ccc(-c2cc3nc(-c4ccco4)cc(N4CCNCC4)n3n2)cc1	6980 nM	–
COc1cc(OC)cc(-c2cc3nc(C)c(C)c(N4CCN(C(=O)c5ccoc5)CC4)n3n2)c1	664 nM	–
O=C(c1ccoc1)N1CCN(c2cc(-c3ccoc3)nc3cc(-c4ccccc4)nn23)CC1	1590 nM	–
O=C(Nc1ccccc1)C1CCN(c2cc(-c3ccco3)nc3cc(-c4ccccc4)nn23)CC1	6490 nM	–
Cc1nc2cc(-c3ccccc3)nn2c(N2CCN(C(=O)c3ccoc3)CC2)c1C	2000 nM	–

The remaining lines, values ahead:

EC50	inhibition (at 50 µM (top of the series))	Structure (SMILES)
2440 nM	–	Cc1c(-c2ccco2)nc2cc(-c3ccccc3)nn2c1N1CCN(C(=O)c2ccoc2)CC1
1800 nM	–	COc1ccc(-c2cc3nc(-c4ccco4)cc(N4CCN(C(=O)c5ccoc5)CC4)n3n2)cc1
2680 nM	–	COc1ccc(-c2cc3nc(C)c(C)c(N4CCN(C(=O)c5ccco5)CC4)n3n2)cc1
1680 nM	–	c1ccc(CN2CCN(c3cc(-c4ccco4)nc4cc(-c5ccccc5)nn34)CC2)cc1
1680 nM	–	COC(=O)c1cccc(-c2cc(N3CCN(C(=O)c4ccoc4)CC3)n3nc(-c4cccc(OC)c4)cc3n2)c1
6390 nM	–	COc1ccc(-c2cc3nc(C)c(C)c(N4CCN(C(C)=O)CC4)n3n2)cc1
2360 nM	–	CC(=O)N1CCN(c2cc(-c3ccccc3)nc3cc(-c4ccccc4)nn23)CC1
3440 nM	–	CC1CN(C(=O)OC(C)(C)C)CCN1c1cc(-c2ccco2)nc2cc(-c3ccccc3)nn12 (centres undefined)
3810 nM	–	Cc1cc(C(=O)N2CCN(c3cc(-c4ccco4)nc4cc(-c5ccccc5)nn34)CC2)c(C)o1
626 nM	–	CC(=O)N1CCN(c2cc(-c3ccco3)nc3cc(-c4cccc(Cl)c4)nn23)CC1
1430 nM	–	Cc1nc2cc(-c3cccc(F)c3)nn2c(N2CCN(C(=O)c3ccco3)CC2)c1C
1450 nM	–	CCc1c(C)nc2cc(-c3cccc(OC)c3)nn2c1N1CCN(C(=O)c2ccoc2)CC1
2300 nM	–	O=C(c1ccoc1)N1CCN(c2cc(-c3cccc(F)c3)nc3cc(-c4cccc(Cl)c4)nn23)CC1
1620 nM	–	COc1ccc(-c2cc3nc(-c4ccccc4)cc(N4CCN(C(=O)c5ccoc5)CC4)n3n2)cc1
4270 nM	–	COc1ccccc1-c1cc2nc(-c3ccco3)cc(N3CCN(C(=O)c4ccoc4)CC3)n2n1
9310 nM	–	Cc1nc2cc(-c3cccc(Cl)c3)nn2c(N2CCN(C(=O)c3ccoc3)CC2)c1C
852 nM	–	O=C(c1ccco1)N1CCN(c2cc(-c3ccco3)nc3cc(-c4ccccc4)nn23)CC1
613 nM	–	Cc1nc2cc(-c3ccc4c(c3)OCO4)nn2c(N2CCN(C(=O)c3ccoc3)CC2)c1C
1920 nM	–	COc1cccc(-c2cc3nc(-c4ccccc4)cc(N4CCN(C(=O)c5ccoc5)CC4)n3n2)c1
7100 nM	–	COc1cccc(-c2cc3nc(C)c(C)c(N4CCN(C(=O)c5ccco5)CC4)n3n2)c1
460 nM	–	O=C(c1ccoc1)N1CCN(c2cc(-c3ccco3)nc3cc(-c4ccccc4)nn23)CC1
inactive	–	CN(CCN(C)c1cc(-c2ccco2)nc2cc(-c3ccccc3)nn12)C(=O)c1ccoc1
2960 nM	–	O=C(c1ccoc1)N1CCN(c2cc(-c3ccco3)nc3cc(-c4cccc(Cl)c4)nn23)CC1
inactive	–	CNCCN(C)c1cc(-c2ccco2)nc2cc(-c3ccccc3)nn12
12100 nM	–	O=C(c1ccoc1)N1CCN(c2cc(-c3ccc(F)cc3)nc3cc(-c4ccccc4)nn23)CC1

EC50	inhibition (at 50 µM (top of the series))	Structure (SMILES)
2110 nM	–	O=C(c1ccoc1)N1CCN(c2cc(-c3cccc(F)c3)nc3cc(-c4ccccc4)nn23)CC1
6020 nM	–	COc1cccc(-c2cc3nc(C)c(C(C)C)c(N4CCN(C(=O)c5ccoc5)CC4)n3n2)c1
9090 nM	–	Cc1cccc(-c2cc3nc(-c4ccco4)cc(N4CCN(C(=O)c5ccoc5)CC4)n3n2)c1
1030 nM	–	O=C(c1ccoc1)N1CCN(c2cc(-c3ccccc3)nc3cc(-c4ccncc4)nn23)CC1
3550 nM	–	O=C(c1ccco1)N1CCN(c2cc(-c3ccccc3)nc3ncnn23)CC1
3620 nM	–	O=C(c1ccoc1)N1CCN(c2cc(-c3ccccc3F)nc3cc(-c4ccccc4)nn23)CC1
503 nM	–	O=C(c1ccoc1)N1CCN(c2cc(-c3ccco3)nc3cc(-c4cccc(-c5ccco5)c4)nn23)CC1
540 nM	–	COc1cccc(-c2cc(N3CCN(C(=O)c4ccoc4)CC3)n3nc(-c4cccc(OC)c4)cc3n2)c1
1510 nM	–	O=C(c1ccccc1)N1CCN(c2cc(-c3ccco3)nc3cc(-c4ccccc4)nn23)CC1
7520 nM	–	Cc1cc(N2CCN(C(=O)c3ccco3)CC2)n2ncc(-c3ccccc3)c2n1
788 nM	–	COc1cccc(-c2cc3nc(-c4cccc(C(F)(F)F)c4)cc(N4CCN(C(=O)c5ccoc5)CC4)n3n2)c1
inactive	–	CC(=O)N1CCN(c2cc(C)nc3cc(-c4cccc(F)c4)nn23)CC1
1220 nM	–	O=C(c1ccoc1)N1CCCN(c2cc(-c3ccco3)nc3cc(-c4ccccc4)nn23)C1
1690 nM	–	Cc1occc1C(=O)N1CCN(c2cc(-c3ccco3)nc3cc(-c4ccccc4)nn23)CC1
inactive	–	CC(C)(C)c1cc(N2CCN(C(=O)c3ccoc3)CC2)n2nc(-c3ccccc3)cc2n1
1670 nM	–	COc1cccc(-c2cc3nc(-c4ccccc4)c(C)c(N4CCN(C(=O)c5ccoc5)CC4)n3n2)c1
–	inactive	COc1ccccc1-c1c(C)nn2c(N3CCN(C(=O)c4ccco4)CC3)cc(C)nc12
1920 nM	–	Cc1nn2c(N3CCN(C(=O)c4ccco4)CC3)cc(C(C)(C)C)nc2c1-c1ccc(Cl)cc1
8870 nM	–	CN(C)c1cc(-c2ccco2)nc2cc(-c3ccccc3)nn12
1820 nM	–	Cc1ccc(-c2cc3nc(-c4ccco4)cc(N4CCN(Cc5ccoc5)CC4)n3n2)cc1
4170 nM	–	Cc1ccc(-c2nc3nc(C)cc(N4CCN(C(=O)c5ccco5)CC4)n3n2)cc1
1460 nM	–	O=C(c1coc2ccccc12)N1CCN(c2cc(-c3ccco3)nc3cc(-c4ccccc4)nn23)CC1
inactive	–	CNCCCN(C)c1cc(-c2ccco2)nc2cc(-c3ccccc3)nn12
1450 nM	–	Cc1ccc(-c2cc(N3CCN(C(=O)c4ccoc4)CC3)n3nc(-c4ccccc4)cc3n2)o1
